Source: the NIST ThermoML archive (doi:10.1016/j.fluid.2011.02.010)

What was measured:
[1] = for mass density / viscosity / speed of sound: 101 kPa; for speed of sound: Frequency=2 MHz
[2] = xn = mol fraction of the nth substance listed; settings: 101 kPa, Liquid, x2 = 0; for speed of sound: Frequency=2 MHz

CCCCn1cc[n+](C)c1.[Cl-] [1-butyl-3-methylimidazolium chloride]
[1], Liquid
Settings	mass density [kg/m3]	speed of sound [m/s]	viscosity [mPa·s]
298.15 K	1074.43	1868	29.21
303.15 K	1071.38	1860	25.72
308.15 K	1068.32	1848	21.21
318.15 K	1062.14	1820	18.97
328.15 K	1055.89	1804	16.74

CC[NH2+]CC.O=S(=O)([O-])O [diethylammonium hydrogen sulfate]
[1]
Settings	Normal melting temperature, visual observation [°C]	mass density, Metastable liquid [kg/m3]	speed of sound, Metastable liquid [m/s]	viscosity, Metastable liquid [mPa·s]
298.15 K	–	1028.39	1432	25.8
303.15 K	–	1023.97	1408	21.3
308.15 K	–	1020.54	1392	18.1
318.15 K	–	1012.68	1356	13.61
328.15 K	–	1004.83	1324	10.2
Crystal	81.00	–	–	–

C[S+](C)[O-] [dimethyl sulfoxide]
[1], Liquid
Settings	mass density [kg/m3]	speed of sound [m/s]	viscosity [mPa·s]
298.15 K	1095.37	1496	1.99
303.15 K	1092.41	1472	1.8
308.15 K	1086.07	1460	1.65
318.15 K	1076.22	1428	1.38
328.15 K	1066.09	1412	1.04

C[S+](C)[O-] [dimethyl sulfoxide] + CCCCn1cc[n+](C)c1.[Cl-]
[2]
Settings	mass density [kg/m3]	speed of sound [m/s]	viscosity [mPa·s]
298.15 K	1095.37	1496	1.99
303.15 K	1092.41	1472	1.8
308.15 K	1086.07	1460	1.65
318.15 K	1076.22	1428	1.38
328.15 K	1066.09	1412	1.04

C[S+](C)[O-] [dimethyl sulfoxide] + CC[NH2+]CC.O=S(=O)([O-])O
[2]
Settings	mass density [kg/m3]	speed of sound [m/s]	viscosity [mPa·s]
298.15 K	1095.37	1496	1.99
303.15 K	1092.41	1472	1.8
308.15 K	1086.07	1460	1.65
318.15 K	1076.22	1428	1.38
328.15 K	1066.09	1412	1.04
